Test results published in patent US12396997B2, “Methods of treatment with an iboga alkaloid” (priority 2022, dated 2025).
“And” between values parts separate entries of the source, which are not always exact repeats. Identical values can stand only once. “Also recorded” adds a separate entry of the source.

Tests used:
[1] = tested on: special operations veterans with history of TBI; assay: World Health Organization Disability Assessment Scale 2.0 (WHODAS 2.0); type: in vivo, human; conditions: for WHODAS 2.0 Subscale Self Care: baseline 5.2% ± 9.2%; for WHODAS 2.0 Subscale Mobility: baseline 14.7% ± 15.7%
Method: (§1) Thirty, male, navy seal or army special forces veterans, ages 33-58 years (mean 44.5 years), were enrolled. Of the 30 participants, 27 were Caucasian, 1 was Hispanic and 2 were Native American. Body mass index was between 17-35 kg/m^2.
(§2) With subjects in the fasting state, an intravenous infusion of 1 gram of magnesium sulfate was administered 1-2 hours prior to treatment. […] Medical staff (MD, RN, or EMT) were onsite at a ratio of at least 1 staff per 2 patients throughout treatment for monitoring and management, but no specific coaching or psychological support was provided during treatment.
(§3) Post treatment, each subject was assessed four days after treatment, one month after treatment, and, if willing, one year after treatment. The post-treatment assessments conducted at four days and at one month after treatment included neuropsychological testing, measures of PTSD, depression, anxiety, mystical experiences, functional imaging and EEG. Post-treatment assessments conducted at one year after treatment included PTSD, depression, and anxiety measures.
World Health Organization Disability Assessment Scale 2.0 (WHODAS 2.0) was used as a measure of function. WHODAS was used to assess the impact of health conditions across six life domains (cognition, mobility, self-care, interpersonal, life activities, and community participation) and it is sensitive to change over time (Gold, L. H., J. Am. Acad. Psychiatry Law 42, 9 (2014). Each item in the assessment is rated on a scale ranging from no problems to extreme problems (Üstün, T. B. et al., Measuring health and disability: Manual for WHO disability assessment schedule WHODAS 2.0. (World Health Organization, 2010)). To capture inter-individual variability in disability the WHODAS complex scoring method was used. Raw scores were converted to a metric ranging from 0 (no disability) to 100 (full disability), by calculating the ratio of the participant's score relative to the maximum possible score in each domain as well as to the total score (Id.). A score of 20%-39% was considered mild, 40%-59% was moderate, 60%-79% was moderate-severe and 80%-100% was severe. Scores from baseline were compared to scores from one-month post treatment.

[2] = tested on: special operations veterans with history of TBI; assay: CAPS-5 (Clinician-administered PTSD Scale for DSM-5); type: in vivo, human
Method: as §1, §2
as §3, with “measures. […]” for “measures.”

[3] = tested on: special operations veterans with history of TBI; assay: MADRS (Montgomery-Asberg Depression Rating Scale), incl. suicidal ideation item Q10; type: in vivo, human
Method: as §2, §3
MADRS testing provides an indication of depressive symptoms, CAPS-5 provides an indication of PTSD and SIGH-A provides an indication of anxiety. Collectively these overlap to provide indication of mood, concentration, sleep and tension.
The MADRS is a clinician-administered 10-item scale assessing the severity of depression symptoms. […] A total score of 0-6 indicates no depression, 7-19 mild depression, 20-34 moderate depression, 35-59 severe depression, and 60+ very severe depressive symptoms (Müller, M. J., J. Affect. Disord. 77, 255-260 (2003)).

[4] = tested on: special operations veterans with history of TBI; assay: Hamilton Anxiety Rating Scale (HAM-A); type: in vivo, human
Method: as §1, §2
as §3, with “measures. […]” for “measures.”

[5] = tested on: special operations veterans with history of TBI; assay: Safety monitoring during and after ibogaine treatment (adverse events, QTc by ECG); type: in vivo, human
Method: 12 participants (40%) were treated for headache. 7 (23%) for nausea. 3 (10%) for anxiety. 2 (7%) for hypertension, and 1 (3%) for insomnia.
as §2

[6] = tested on: special operations veterans with history of TBI; assay: Structural T1w MRI (FreeSurfer) regional volume and cortical thickness; type: in vivo, human
Method: Structural imaging of the brain was also conducted on some of the subjects of Example 1. Gray matter constitutes about 40% of the brain and white matter constitutes about 60% of the brain. Gray matter contains most of the brain's neuronal cell nodes, it is fully developed once a person reaches their 20's and interprets sensor information from various parts of the body. White matter is made up of bundles which connect various gray matter areas, it develops throughout the 20's and peaks in middle age. Typical metrics analyzed in anatomical (T1-weighted. “T1w”) imaging include volume and/or shape of nuclei (e.g. caudate), volume and/or shape of ventricles of the brain, and cortical thickness (mm). These metrics can be used to study normal and abnormal neuroanatomy and are primarily used to quantify gray matter. A tool called FreeSurfer was applied to images for a T1w structural analysis (volume, cortical thickness) to adjust for bias, remove non-brain matter, segments by tissue, parcels the brain into standardized regions, and provides measurements of those regions. FreeSurfer measurements of whole brain volume, volume by tissue (gray, white, CSF), estimated intracranial volume (ICV), subcortical gray matter volume, cortical volume by region were done. […] In particular, analysis was done to determine if there was any loss in gray matter volume or cortical thickness, whether there was a loss in white matter volume or an increase in presence of white matter […].
The fMRI images were also inspected to determine the difference in volume in regional areas of the brain from baseline to one month after treatment. FIG. 8A is a bar graph showing the effect size of a change in volume in 47 brain regions indicated along the x-axis. […] The fMRI images were also inspected for whole brain thickness at baseline and one month after treatment. […] FIG. 8B is a bar graph showing the effect size of a cortical thickness change for the brain regions indicated along the x-axis, from baseline to one month after treatment. […] The right and left parahippocampal gyrus are involved in visuospatial processing, including scene perception, navigation, and emotional contextualization. The left orbitofrontal gyrus is involved in impulse control and reward valuation. The left insular cortex is associated with both the affective-perceptual and cognitive-evaluative forms of empathy, as well as awareness of hunger, pain and fatigue. The left entorhinal cortex is a widespread network hub for memory, navigation, and perception of time.

[7] = tested on: special operations veterans with history of TBI; assay: Predicted brain age from MRI with brain age model; type: in vivo, human; conditions: one-month post treatment; FIG. 9D
Description: A predictive model of normal aging defined using machine learning in healthy individuals, based on magnetic resonance imaging-derived estimates of gray matter and white matter (Id.) was applied to the MRI images from the subjects enrolled in the study of Example 1. […] There was a significant reversal of brain age from baseline to one month after treatment. The mean decrease in brain age was 1.3 years (corrected p=0.03).
At baseline, the brain age estimate for the 24 subjects was 40.89 years. […] The average decrease in brain age from baseline one month after treatment was 1.4 years.

[8] = tested on: special operations veterans with history of TBI; conditions: in vivo
[9] = tested on: N-methyl-D-aspartate, kappa and mu opioid, sigma-1 and -2, nicotinic acetylcholine, serotonin transporter, and dopamine transporter; conditions: literature; cited from earlier work
[10] = tested on: brain-derived neurotrophic factor (BDNF) and glial cell line-derived neurotrophic factor (GDNF); conditions: literature; cited from earlier work
cortical neuron = conditions: in vitro; literature; cited from earlier work
[11] = orally administered to humans; cited from earlier work
people = conditions: in vivo; cited from earlier work
[12] = effect size, Baseline vs One-Month
[13] = effect size, Baseline vs Post-Treatment
[14] = following treatment vs baseline

## CCC1CC2CC3c4[nH]c5ccc(OC)cc5c4CCN(C2)C13 (stereo not drawn) [ibogaine]
[1]; One-Month, mean, SD 2.9%
  WHODAS 2.0 Subscale Self Care: 1.0% ±
[1]; One-Month, mean, SD 3.3%
  WHODAS 2.0 Subscale Mobility: 1.3% ±
[1]; One-Month, mean, SD 7.9%, baseline 36.1% ± 14.6%
  WHODAS 2.0 Subscale Cognition: 5.0% ±
[1]; One-Month, mean, SD 9.5%, baseline 32.3% ± 20.4
  WHODAS 2.0 Subscale Interpersonal: 4.8% ±
[1]; One-Month, mean, SD 13.1%, baseline 35.6% ± 21.1%
  WHODAS 2.0 Subscale Community Participation: 5.9% ±
[1]; One-Month, mean, SD 16.2%, baseline 41.1% ± 24.8%
  WHODAS 2.0 Subscale Life Activities: 9.1% ±
[1]; Post-Treatment, mean, SD 4.7%
  WHODAS 2.0 Subscale Self Care: 1.9% ±
[1]; Post-Treatment, mean, SD 13.5%
  WHODAS 2.0 Subscale Mobility: 7.2% ±
[1]; [12]
  WHODAS 2.0 Subscale Mobility, D: 0.83
  WHODAS 2.0 Subscale Self Care, D: 0.51
[1]; [13]
  WHODAS 2.0 Subscale Cognition, D: 0.96
  WHODAS 2.0 Subscale Community Participation, D: 0.53
  WHODAS 2.0 Subscale Interpersonal, D: 0.60
  WHODAS 2.0 Subscale Life Activities, D: 0.48
  WHODAS 2.0 Subscale Mobility, D: 0.53
  WHODAS 2.0 Subscale Self Care, D: 0.37
[2]; [14]
  Cohen's D on clinician rated psychiatric assessments (PTSD): > 2
[2]; secondary analyses
  Remission rate for comorbid PTSD: around 80%
[3]; 1-mo. post, mild TBI, N 28, baseline 46%
  Suicidal Ideation (MADR Q10), % Reporting: 7%
[3]; [14]
  Cohen's D on clinician rated psychiatric assessments (depression): > 2
[3]; secondary analyses
  Remission rate for comorbid depression: around 80%
[4]; [14]
  Cohen's D on clinician rated psychiatric assessments (anxiety): > 2
[4]; secondary analyses
  Remission rate for comorbid anxiety: around 80%
[5]; 30 participants, oral ibogaine 12.1±1.2 mg/kg with iv magnesium sulfate, 1.2 mg/kg
  Unexpected or serious treatment-emergent side effects / adverse events: no unexpected or serious treatment-emergent side effects; also recorded: no serious or unexpected adverse events
[5]; continuous 5-lead ECG
  Concerning prolongation of QTc: no instances of a concerning prolongation of QTc
[5]; during oneirogenic effects, 1 participant
  Participants treated for insomnia: 3%
[5]; during oneirogenic effects, 2 participants
  Participants treated for hypertension: 7%
[5]; during oneirogenic effects, 3 participants
  Participants treated for anxiety: 10%
[5]; during oneirogenic effects, 7 participants
  Participants treated for nausea: 23%
[5]; during oneirogenic effects, 12 participants
  Participants treated for headache: 40%
[6]; baseline vs. one month post treatment, two-tailed p = 0.0789
  White matter hypointensities (corrected for cerebral white matter): Two-tailed: no significant differences
[6]; baseline vs. one month post treatment, two-tailed p = 0.0949
  Subcortical Gray Matter volume: Two-tailed: no significant differences
[6]; baseline vs. one month post treatment, two-tailed p = 0.4755
  Total Gray Matter volume: Two-tailed: no significant differences
[6]; baseline vs. one month post treatment, two-tailed p = 0.4847
  Cortical Gray Matter volume: Two-tailed: no significant differences
[6]; one month after treatment vs baseline, two-tailed
  Right hemisphere mean thickness: no significant difference
[6]; one month after treatment vs baseline, two-tailed p=0.7146
  Left hemisphere mean thickness: no significant difference
[7]
  Estimated brain age compared to aiTBS: reducing in estimated brain age
[8]
  Declines across any performance domain: No declines
  Executive functioning effect size D: 0.31-1.22
  Performance change in language (semantic fluency): No significant performance changes
  Phonemic Fluency (D-KEFS Verbal Fluency): 64.0 ± 10.1 T score
  Processing speed effect size D: 0.97-1.34
  Reaction Time (CPT-3 Reaction Time): 44.1 ± 6.8 T score and 46.4 ± 8.1 T score
  Slowing of reaction time effect size D: 0.29-0.52
  Sustained Attention (CPT-3 Hit Reaction Time Block Change): 50.8 ± 7.9 T score and 51.2 ± 7.7 T score
  Sustained attention accuracy (detection) effect size D: 0.86-1.05
  Verbal Memory (HVLT-R): 49.0 ± 9.2 T score
[8]; iv
  Working Memory (WMI (WAIS-IV)): 57.0 ± 9.5 T score
[9]
  Affinity for neurotransmitter receptors: moderate-to-weak affinity
[10]
  Transcription of neurotrophic factors BDNF and GDNF: increases the transcription
Cortical neuron
  Cortical neuron dendritic arbor complexity: increases cortical neuron dendritic arbor complexity
[11]
  half-life: about 7.5 hours
people
  People who may suffer cardiac arrest when treated: Approximately 1 in 300

## CC[C@H]1CC2C[C@H]3c4[nH]c5ccc(O)cc5c4CCN(C2)C13 [noribogaine]
[9]
  Affinity for neurotransmitter receptors: moderate-to-weak affinity
